Laboratory results taken from patent US12156922B2, “Copper-containing complex and uses thereof” (Bar-Ilan University, priority 2017, dated 2024).
Several values for one entry are separate records, joined by “and”; a condition that tells them apart may be missing. Identical values can stand only once. No end group written: not given here. *: point of attachment. MTSSL = S-(1-oxyl-2,2,5,5-tetramethyl-2,5-dihydro-1H-pyrrol-3-yl)methyl methanesulfonothioate spin label conjugate, CC1(C)C=C(CS*)C(C)(C)N1[O]

What was measured:
[1] = UV-visible titration of ATSM-Cu(II) complex with Cu(II) chelators and peptides (311 nm / 465 nm); type: physicochemical
Method: The stability of the ATSM-Cu(II) complex was tested by using UV-visible spectrophotometry. […] In order to confirm the dissociation of ATSM-Cu(II) complex or the formation of copper complex with ligands or copper chelation by ligands, the effect of ligands on ATSM-Cu(II) was also tested using electron paramagnetic resonance (EPR) spectroscopy.
Stock solutions of CuCl2 (10 mM), 1,10-phenanthroline (10 mM), IDA (10 mM), and L-histidine (10 mM), NTA (5 mM) and Pep1 (5 mM) were prepared in ultrapure water (Milli-Q®). Stock solutions (1 mM) of HAGAH, HGGH and HTGMK peptides were prepared by dissolution in 0.1 M phosphate buffer (pH 7.4).
In order to facilitate the solubility of ATSM-Cu(II) complex, all the measurements were carried out in 30% DMSO in 0.1 M phosphate buffer (pH 7.4), at physiological conditions.

[2] = Reduction of Cu(II) to Cu(I) by ascorbate in the presence of peptide, followed by room temperature EPR intensity; conditions: 2 mM ascorbate, peptide:ascorbate:Cu(II) 1:2:2; for Cu(II) reduced: within 4000 seconds, room temperature
Method: For measuring Cu(II) reduction by EPR spectroscopy, 20 μl of aqueous CuCl2 solution (2 mM) was added to 20 μl of a solution of a tested peptide (1 mM). At time zero, 20 μl of ascorbic acid solution (2 mM) was added, and the solution was mixed under anaerobic conditions. Cu(II) EPR signal intensity (at the maximum EPR signal intensity (g⊥ position)) was measured as a function of time.
The effects of the mutations of the Pep2-Pep5 peptides on the reduction of Cu(II) to Cu(I) was then investigated, by evaluating the room temperature (RT) change in EPR intensity over time, as Cu(I) is EPR-silent. Reduction of Cu(II) was effected in the presence of 2 mM ascorbate (a peptide:ascorbate:Cu(II) molar ratio of 1:2:2). For comparison, the reduction of free Cu(II) in buffer was also measured.

[3] = Low temperature CW-EPR of Cu(II) binding to Ctr1 N-terminal peptides in KPi buffer; conditions: for percentage of Cu(II) bound to peptide (species other than 4O coordination): 130 K
Method: Continuous wave electron […] (CW-EPR) spectra were recorded using an Elexsys™ E500 spectrometer (Bruker) operating at 9.0-9.5 GHz, equipped with a super-high-sensitivity CW resonator. The spectra were recorded at room temperature (RT; 295±2 K) or at low temperature (130±5 K) at a microwave power of 20.0 mW, modulation amplitude of 1.0 G, time constant of 60 or 80 milliseconds, and receiver gain of 60.0 dB. The samples were measured in 0.8 mm or 1.0 mm capillary quartz tubes (VitroCom) at RT. Solutions that were measured at low temperature were mixed with 20% glycerol, and measured in a 3.0 mm or 4.0 mm Wilmad® quartz tube.
Simulation of CW-EPR spectra was performed using MATLAB, with the EasySpin™ toolbox, according to procedures described by Stoll & Schweiger [J Magn Reson 2006, 178:42-55]. In fitting a spectrum to a simulation, emphasis is placed on small peaks of in the region of under 3000G.
The abovementioned peptides Pep1-Pep5 were investigated by CW-EPR measurements at low temperature (130 K), in the presence of different concentrations of Cu(II). The data were subsequently incorporated into simulations using the EasySpin™ tool box, and the first coordination sphere of Cu(II) was determined for each peptide, according to procedures described in Peisach & Blumberg [Arch Biochem Biophys 1974, 165:691-708]. The experimental data and comparisons with simulated data (including parameters derived from the simulations) for peptides Pep1-Pep5, at a variety of peptide:Cu(II) molar ratios, are presented in FIGS. 7-11. FIG. 12 presents the experimental data and comparisons with simulated data for peptides Pep1-Pep5 at a peptide:Cu(II) molar ratio of 1:1.
The simulation for each peptide took into account two Cu(II) species. The first species corresponds to free Cu(II) ions in water, where Cu(II) is coordinated to four oxygen atoms (4O coordination), with g∥=2.39±0.005, A∥=154±2.0 G. The second species corresponds to Cu(II) that is bound to the peptide with coordination of 3N1O or 2N2O.

[4] = UV-VIS titration of peptides with Cu(I), absorption at 265 nm; type: binding; conditions: 3-20 molar equivalents of Cu(I)
Method: UV-Visible-IR absorption spectra were obtained using a Cary® Bio 100 spectrophotometer, or using a Chirascan™ spectrometer (Applied Photophysics), at room temperature with a 1 mm optical path-length cell. Acetone was used as a reference. Typically, peptides were measured at a concentration of 0.3 mg/ml. Difference absorption spectra were obtained for peptides titrated with Cu(I) from 200 to 600 nm with a step size and a bandwidth of 0.5 nm.
Cu(I) was added to peptide solutions in the form of tetrakis(acetonitrile)copper(I) hexafluorophosphate under nitrogen gas in order to preserve anaerobic conditions. No Cu(II) signal was observed by EPR, thereby confirming the purity of the Cu(I).
In order to gain further insight into Cu(I) coordination, UV-VIS measurements were performed on the various peptides (as described n the Materials and Methods section hereinabove).

[5] = peptide:Cu(II) molar ratio 1:0.4
[6] = peptide:Cu(II) molar ratio 1:0.6
[7] = peptide:Cu(II) molar ratio 1:0.8
[8] = peptide:Cu(II) molar ratio 1:1.4

Row | Compound | percentage of Cu(II) bound to peptide (species other than 4O coordination) [3, 5] | percentage of Cu(II) bound to peptide (species other than 4O coordination) [3, 6] | percentage of Cu(II) bound to peptide (species other than 4O coordination) [3, 7] | percentage of Cu(II) bound to peptide (species other than 4O coordination) ([3]; peptide:Cu(II) molar ratio 1:1) | percentage of Cu(II) bound to peptide (species other than 4O coordination) [3, 8] | percentage of Cu(II) bound to peptide (species other than 4O coordination) ([3]; peptide:Cu(II) molar ratio 1:2) | percentage of Cu(II) bound to peptide (species other than 4O coordination) ([3]; peptide:Cu(II) molar ratio 1:3) | other results
1 | HTGMK | – | – | – | – | – | – | – | molar equivalents sufficient/needed to remove copper from the ATSM-Cu(II) complex ([1]; 30% DMSO in 0.1 M phosphate buffer (pH 7.4)): one molar equivalent
2 | MDHSAHMGMSYMDS (Pep4 peptide amino acid sequence) | 70% | 80% | 85% | 90% | 92% | 94% | 97% and 100% | reduction of Cu(II) compared with free Cu(II) ions [2]: more rapid than reduction of free Cu(II) ions; reduction of Cu(II) compared with wild-type peptide [2]: more rapid than in the presence of Pep1
3 | MTSSL-CMDHSHHAGMSYMDSC-MTSSL (C(MTSSL)MDHSHHAGMSYMDSC(MTSSL)-NH2; N-terminus assumed; SMILES CSCC[C@H](NC(=O)CNC(=O)[C@H](C)NC(=O)[C@H](Cc1c[nH]cn1)NC(=O)[C@H](Cc1c[nH]cn1)NC(=O)[C@H](CO)NC(=O)[C@H](Cc1c[nH]cn1)NC(=O)[C@H](CC(=O)O)NC(=O)[C@H](CCSC)NC(=O)[C@@H](N)CSSCC1=CC(C)(C)N([O])C1(C)C)C(=O)N[C@@H](CO)C(=O)N[C@@H](Cc1ccc(O)cc1)C(=O)N[C@@H](CCSC)C(=O)N[C@@H](CC(=O)O)C(=O)N[C@@H](CO)C(=O)N[C@@H](CSSCC1=CC(C)(C)N([O])C1(C)C)C(N)=O) [Pep8] | – | – | – | – | – | – | – | absorption at 265 nm upon addition of Cu(I) (Cu(I) binding) [4]: did not change upon addition of Cu(I)
4 | MTSSL-CMDHSHHMGASYMDSC-MTSSL (C(MTSSL)MDHSHHMGASYMDSC(MTSSL)-NH2; N-terminus assumed; SMILES CSCC[C@H](NC(=O)[C@H](Cc1c[nH]cn1)NC(=O)[C@H](Cc1c[nH]cn1)NC(=O)[C@H](CO)NC(=O)[C@H](Cc1c[nH]cn1)NC(=O)[C@H](CC(=O)O)NC(=O)[C@H](CCSC)NC(=O)[C@@H](N)CSSCC1=CC(C)(C)N([O])C1(C)C)C(=O)NCC(=O)N[C@@H](C)C(=O)N[C@@H](CO)C(=O)N[C@@H](Cc1ccc(O)cc1)C(=O)N[C@@H](CCSC)C(=O)N[C@@H](CC(=O)O)C(=O)N[C@@H](CO)C(=O)N[C@@H](CSSCC1=CC(C)(C)N([O])C1(C)C)C(N)=O) [Pep9] | – | – | – | – | – | – | – | absorption at 265 nm upon addition of Cu(I) (Cu(I) binding) [4]: did not change upon addition of Cu(I)
5 | MDHSHHMGMSYMDS (Pep1 peptide amino acid sequence) | – | – | – | 80% | 70% | 70% | 70% | Cu(II) reduced [2]: about 5%; Cu(II) bound to peptide ([3]; low Cu(II) concentrations): substantially all Cu(II) is bound
6 | MDHSHAMGMSYMDS (Pep5 peptide amino acid sequence) | 75% | 75% | 75% | – | 40% | 40% | 30% | reduction of Cu(II) compared with wild-type peptide [2]: more rapid than in the presence of Pep1
7 | MDHSHHMAMSYMDS (Pep2 peptide amino acid sequence) | 60% | 80% | 85% and 80% | 70% | 60% | 62% | 58% | Cu(II) reduced [2]: about 5%
8 | CN=C([S-])N/N=C(C)/C(C)=N/NC([S-])=NC.[Cu+2] [ATSM-Cu(II), Cu(II)-diacetyl-bis(N4-methylthiosemicarbazone)] | – | – | – | – | – | – | – | stability of ATSM-Cu(II) complex in the presence of Cu(II) ligands ([1]; overall conclusion from UV-visible and EPR): may be unstable in a cellular environment
